Measurements: PubChem BioAssay AID2060900 (Molecular Pharmacology Branch, DTP, NCI, 2025)

System: 521955-158-R2-J5-PDC complex spheroids, viability
Assay: Anticancer human tumor 521955-158-R2-J5-PDC patient-derived pancreatic carcinoma cell line growth inhibition [RAS]
Conditions: for IC50: curve of first compound; for viability, T/C: stronger effect = lower value
In short: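 Agents were tested in combination matrices in half-log decrements from a top concentration at or near clinical Cmax (10 microM if undetermined). Targets were multi-cell spheroids of tumour lines plus HUVEC and MSC stromal cells.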
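Further: compound exposure lasted seven days before the viability read.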
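Wherever viability, T/C is given: spheroids also contain HUVEC endothelial cells and mesenchymal stem cells as stroma.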

SMILES: CC(=O)OC12COC1CC(O)C1(C)C(=O)C(O)C3=C(C)C(OC(=O)C(O)C(NC(=O)OC(C)(C)C)c4ccccc4)CC(O)(C(OC(=O)c4ccccc4)C21)C3(C)C (centres undefined) + CCn1c(-c2cc(N3CCN(C)CC3)cnc2C(C)OC)c2c3cc(ccc31)-c1csc(n1)CC(NC(=O)C1CC1C)C(=O)N1CCCC(N1)C(=O)OCC(C)(C)C2
- IC50 (second compound 0.000949 µM): < 31.6 nM
- IC50 (second compound 0.003 µM): < 31.6 nM
- IC50 (second compound 0.00949 µM): < 31.6 nM
- IC50 (second compound 0.03 µM): < 31.6 nM
- IC50 (second compound 0.0949 µM): < 31.6 nM
- IC50 (second compound 0.3 µM): < 31.6 nM
- viability, T/C (second compound 0.000949 µM, first compound 0.0316 µM): 19.7%
- viability, T/C (second compound 0.000949 µM, first compound 0.1 µM): 23.3%
- viability, T/C (second compound 0.000949 µM, first compound 0.316 µM): 20.3%
- viability, T/C (second compound 0.000949 µM, first compound 1 µM): 24.3%
- viability, T/C (second compound 0.000949 µM, first compound 3.16 µM): 29.3%
- viability, T/C (second compound 0.000949 µM, first compound 10 µM): 30.7%
- viability, T/C (second compound 0.003 µM, first compound 0.0316 µM): 25.7%
- viability, T/C (second compound 0.003 µM, first compound 0.1 µM): 21.4%
- viability, T/C (second compound 0.003 µM, first compound 0.316 µM): 23.5%
- viability, T/C (second compound 0.003 µM, first compound 1 µM): 28.9%
- viability, T/C (second compound 0.003 µM, first compound 3.16 µM): 23.7%
- viability, T/C (second compound 0.003 µM, first compound 10 µM): 26.8%
- viability, T/C (second compound 0.00949 µM, first compound 0.0316 µM): 20.8%
- viability, T/C (second compound 0.00949 µM, first compound 0.1 µM): 21.7%
- viability, T/C (second compound 0.00949 µM, first compound 0.316 µM): 20.4%
- viability, T/C (second compound 0.00949 µM, first compound 1 µM): 19.8%
- viability, T/C (second compound 0.00949 µM, first compound 3.16 µM): 18.9%
- viability, T/C (second compound 0.00949 µM, first compound 10 µM): 16.6%
- viability, T/C (second compound 0.03 µM, first compound 0.0316 µM): 12.9%
- viability, T/C (second compound 0.03 µM, first compound 0.1 µM): 12.8%
- viability, T/C (second compound 0.03 µM, first compound 0.316 µM): 11.8%
- viability, T/C (second compound 0.03 µM, first compound 1 µM): 16.9%
- viability, T/C (second compound 0.03 µM, first compound 3.16 µM): 12.7%
- viability, T/C (second compound 0.03 µM, first compound 10 µM): 9.64%
- viability, T/C (second compound 0.0949 µM, first compound 0.0316 µM): 7.98%
- viability, T/C (second compound 0.0949 µM, first compound 0.1 µM): 9.42%
- viability, T/C (second compound 0.0949 µM, first compound 0.316 µM): 11.9%
- viability, T/C (second compound 0.0949 µM, first compound 1 µM): 8.27%
- viability, T/C (second compound 0.0949 µM, first compound 3.16 µM): 12.1%
- viability, T/C (second compound 0.0949 µM, first compound 10 µM): 7.89%
- viability, T/C (second compound 0.3 µM, first compound 0.0316 µM): 7.22%
- viability, T/C (second compound 0.3 µM, first compound 0.1 µM): 8.9%
- viability, T/C (second compound 0.3 µM, first compound 0.316 µM): 7.91%
- viability, T/C (second compound 0.3 µM, first compound 1 µM): 11.6%
- viability, T/C (second compound 0.3 µM, first compound 3.16 µM): 10.6%
- viability, T/C (second compound 0.3 µM, first compound 10 µM): 7.75%

SMILES: CCc1c2c(nc3ccc(O)cc13)-c1cc3c(c(=O)n1C2)COC(=O)[C@]3(O)CC + CCn1c(-c2cc(N3CCN(C)CC3)cnc2C(C)OC)c2c3cc(ccc31)-c1csc(n1)CC(NC(=O)C1CC1C)C(=O)N1CCCC(N1)C(=O)OCC(C)(C)C2
- IC50 (second compound 0.000949 µM): < 0.949 nM
- IC50 (second compound 0.003 µM): < 0.949 nM
- IC50 (second compound 0.00949 µM): < 0.949 nM
- IC50 (second compound 0.03 µM): < 0.949 nM
- IC50 (second compound 0.0949 µM): < 0.949 nM
- IC50 (second compound 0.3 µM): < 0.949 nM
- viability, T/C (second compound 0.000949 µM, first compound 0.000949 µM): 30.3%
- viability, T/C (second compound 0.000949 µM, first compound 0.003 µM): 23.1%
- viability, T/C (second compound 0.000949 µM, first compound 0.00949 µM): 20.6%
- viability, T/C (second compound 0.000949 µM, first compound 0.03 µM): 6.46%
- viability, T/C (second compound 0.000949 µM, first compound 0.0949 µM): 5.57%
- viability, T/C (second compound 0.000949 µM, first compound 0.3 µM): 4.03%
- viability, T/C (second compound 0.003 µM, first compound 0.000949 µM): 30.4%
- viability, T/C (second compound 0.003 µM, first compound 0.003 µM): 26.8%
- viability, T/C (second compound 0.003 µM, first compound 0.00949 µM): 19.9%
- viability, T/C (second compound 0.003 µM, first compound 0.03 µM): 10.5%
- viability, T/C (second compound 0.003 µM, first compound 0.0949 µM): 8.02%
- viability, T/C (second compound 0.003 µM, first compound 0.3 µM): 5.19%
- viability, T/C (second compound 0.00949 µM, first compound 0.000949 µM): 26.2%
- viability, T/C (second compound 0.00949 µM, first compound 0.003 µM): 26%
- viability, T/C (second compound 0.00949 µM, first compound 0.00949 µM): 19.6%
- viability, T/C (second compound 0.00949 µM, first compound 0.03 µM): 9.8%
- viability, T/C (second compound 0.00949 µM, first compound 0.0949 µM): 10.9%
- viability, T/C (second compound 0.00949 µM, first compound 0.3 µM): 5.95%
- viability, T/C (second compound 0.03 µM, first compound 0.000949 µM): 19.4%
- viability, T/C (second compound 0.03 µM, first compound 0.003 µM): 21.2%
- viability, T/C (second compound 0.03 µM, first compound 0.00949 µM): 13.2%
- viability, T/C (second compound 0.03 µM, first compound 0.03 µM): 8.77%
- viability, T/C (second compound 0.03 µM, first compound 0.0949 µM): 10.2%
- viability, T/C (second compound 0.03 µM, first compound 0.3 µM): 5.37%
- viability, T/C (second compound 0.0949 µM, first compound 0.000949 µM): 11.3%
- viability, T/C (second compound 0.0949 µM, first compound 0.003 µM): 14.1%
- viability, T/C (second compound 0.0949 µM, first compound 0.00949 µM): 8.2%
- viability, T/C (second compound 0.0949 µM, first compound 0.03 µM): 6.36%
- viability, T/C (second compound 0.0949 µM, first compound 0.0949 µM): 5.92%
- viability, T/C (second compound 0.0949 µM, first compound 0.3 µM): 2.8%
- viability, T/C (second compound 0.3 µM, first compound 0.000949 µM): 8.86%
- viability, T/C (second compound 0.3 µM, first compound 0.003 µM): 10.8%
- viability, T/C (second compound 0.3 µM, first compound 0.00949 µM): 8.12%
- viability, T/C (second compound 0.3 µM, first compound 0.03 µM): 5.86%
- viability, T/C (second compound 0.3 µM, first compound 0.0949 µM): 6.11%
- viability, T/C (second compound 0.3 µM, first compound 0.3 µM): 2.57%
